3 compounds from patent publication US4647693A, “Antibiotics DO-248-A and B and process for preparing the same” (Shionogi & Co., Ltd., priority 1984, dated 1987) can be followed below.

In test [1] the test system is M. tuberculosis R-15 (Rifanpicin resistant strain). As to the kind of experiment: MIC, two-fold dilution, Dubos Tween albumin liquid medium. It is filed as cell-based. Conditions: Mycobacterium tuberculosis, 336 h, read-out: minimal inhibitory concentration (MIC).
The subject of test [2] is M. tuberculosis R-18 (Kanamycin and rifanpicin resistant strain). The test is described as above. The format is cell-based. To be noted: Mycobacterium tuberculosis, 336 h, read-out: minimal inhibitory concentration (MIC).

The structures appear in SMILES notation. Values after ≈ are worked out from the molar mass of the structure shown.

With `CC(C)c1c(O)cc(C(NC(=N)N)C(=O)NCC(=O)O)cc1O` (stereo not drawn) [DO-248-A, N-(α-guanidino-3,5-dihydroxy-4-isopropylphenylacetyl)glycine], the MIC in test [1] came to 0.1 µg/mL (≈ 0.308 µM); in test [2], 0.025 µg/mL (≈ 0.0771 µM).
For `NC[C@H]1O[C@H](O[C@H]2[C@H](O)[C@@H](O[C@H]3O[C@H](CO)[C@@H](O)[C@H](N)[C@H]3O)[C@H](N)C[C@@H]2N)[C@H](O)[C@@H](O)[C@@H]1O` [KM, kanamycin], in that order: less than 0.001 µg/mL and greater than 25 µg/mL.
On to `CO[C@H]1/C=C/O[C@@]2(C)Oc3c(C)c(O)c4c(O)c(c(/C=N/N5CCN(C)CC5)c(O)c4c3C2=O)NC(=O)/C(C)=C\C=C\[C@H](C)[C@H](O)[C@@H](C)[C@@H](O)[C@@H](C)[C@H](OC(C)=O)[C@@H]1C` [RFP, rifampicin], for which the MIC in test [1] and in test [2] was greater than 25 µg/mL in each case.
